Laboratory results reported in patent US20250325562A1, “Intravenous Ganaxolone Formulations and Methods of Use in Treating Status Epilepticus and Other Seizure Disorders” (MARINUS PHARMACEUTICALS, INC., priority 2015, published 2025).

Legend:
[1] = test system: pilocarpine induced status epilepticus (SE); assay: Pilocarpine-induced status epilepticus in rats, cortical EEG power; type: in vivo, Male Sprague-Dawley rats; set-up: key to Treatment effect on EEG power vs vehicle, significance: * P < 0.05; ** P < 0.01; *** P < 0.001; **** P < 0.0001; ns = not significant
Procedure: This study was designed to determine the ability of a CAPTISOL-ganaxolone (GNX) formulation administered intravenously (IV) at 12 and 15 mg/kg to inhibit pilocarpine induced status epilepticus (SE). Allopregnanolone (Allo) (15 mg/kg; IV) was also evaluated for comparison. In this study, test drugs were administered either 15 or 60 minutes after onset of SE and compared to vehicle (30% Captisol).
Cortical EEG activity was recorded in rats before and after administration of pilocarpine to induce SE. Animals were pre-treated with LiCl to enhance and improve reliability of seizure induction and scopolamine to reduce peripheral cholinergic side effects of pilocarpine. EEG activity was recorded for 5 h after SE onset, and anticonvulsant activity was assessed by determining changes in EEG power over frequency ranges from 0.3 to 96 Hz.
Male Sprague-Dawley rats were used for the studies. Rats were surgically implanted with EEG electrodes and jugular vein catheters. The mean weight at the time of recording was 321+3 g (269-351 g).
EEG electrodes were surgically implanted in anesthetized rats. Animals were also treated with an anti-inflammatory anaelgesic (RIMADYL, (carprofen)) prior to surgery and a subcutaneous local anesthetic. Stainless steel screw electrodes chronically were implanted in the skull (0-80×¼″, Plastics-One, Roanoke, VA) such that the ends of the screws were flush with the inner skull surface. One electrode was located 3.0 mm anterior to bregma and 2 mm to the left of midline, and the second 4.0 mm posterior to bregma and 2.5 mm to the right of midline. The skull surface around the electrodes was sealed with super glue and dental acrylic, and the EEG electrode lead wires were inserted into a plastic pedestal mounted on the skull using dental acrylic. Wound edges were treated with triple antibiotic cream (bacitracin zinc, neomycin sulfate, polymyxin B sulfate; Walgreens). Following surgery, animals were administered antibiotic (ampicillin, 50 mg/kg IP at 0.4 mL/kg) and also received a chewable dose (˜10 mg) of Rimadyl following surgery. The animals were allowed to recover from EEG surgery for 1 week.
Rats were implanted with jugular-vein catheters (JVC) one week following EEG surgery. Rats were administered an anti-inflammatory/analgesic and then anesthetized and placed in a supine position. An incision was made in the skin on the right ventrolateral aspect of the neck to expose the external jugular vein which was then dissected free of surrounding fascia. A ligature was tied around the vein anteriorly to occlude blood flow returning to the heart. A second ligature was loosely tied around the vein posteriorly to create tension on the vessel during venotomy and catheter insertion. After incising the vein, a PE catheter (3Fr) was inserted into the vein and advanced approximately 30 mm towards the heart, positioning the tip at the junction of the precava and right atrium. After confirming patency of the catheter by blood withdrawal, the posterior ligature was tied off, and the catheter flushed with a “heparin-lock” solution (5 units heparin/ml saline) and plugged with a sterilized stainless steel pin. The catheter was then exteriorized by tunneling through the subcutaneous tissue to exit posterior to the head between the shoulder blades. Lastly, after suturing the catheter to the skin, all wounds were closed using sutures or wound clips. Immediately following surgery, the animals were awakened to assess catheter patency. Animals also received a chewable dose (˜10 mg) of Rimadyl following surgery to minimize pain and inflammation.
Animals were allowed a 1-week recovery time following JVC surgery. Jugular vein catheters were flushed daily with a 0.1 mL of heparin solution (5 units/mL) to maintain patency. On the day of surgery, the flushing solution contained ampicillin sulbactam (50 mg/kg). […]

[2] = cited from earlier work

## CC(=O)[C@H]1CC[C@H]2[C@@H]3CC[C@H]4C[C@](C)(O)CC[C@]4(C)[C@H]3CC[C@]12C [Ganaxolone, 3α-hydroxy, 3β-methyl-5α-pregnan-20-one]
[1]; 12 mg/kg IV, 60 min post SE onset, 10-30 Hz, 15-30 min post drug
  Treatment effect on EEG power vs vehicle, significance: ** (** P < 0.01)
[1]; 12 mg/kg IV, 60 min post SE onset, 10-30 Hz, 30-60 min post drug
  Treatment effect on EEG power vs vehicle, significance: ** (** P < 0.01)
[1]; 12 mg/kg IV, 60 min post SE onset, 30-50 Hz, 0-15 min. post drug
  Treatment effect on EEG power vs vehicle, significance: ns
[1]; 12 mg/kg IV, 60 min post SE onset, 30-50 Hz, 1-2 hrs post drug
  Treatment effect on EEG power vs vehicle, significance: ** (** P < 0.01)
[1]; 12 mg/kg IV, 60 min post SE onset, 30-50 Hz, 2-3 hrs post drug
  Treatment effect on EEG power vs vehicle, significance: * (* P < 0.05)
[1]; 12 mg/kg IV, 60 min post SE onset, 30-50 Hz, 3-5 hrs post drug
  Treatment effect on EEG power vs vehicle, significance: ns
[1]; 12 mg/kg IV, 60 min post SE onset, 30-50 Hz, 15-30 min post drug
  Treatment effect on EEG power vs vehicle, significance: ns
[1]; 12 mg/kg IV, 60 min post SE onset, 30-50 Hz, 30-60 min post drug
  Treatment effect on EEG power vs vehicle, significance: * (* P < 0.05)
[1]; 12 mg/kg IV, 60 min post SE onset, 50-70 Hz, 0-15 min. post drug
  Treatment effect on EEG power vs vehicle, significance: ns
[1]; 12 mg/kg IV, 60 min post SE onset, 50-70 Hz, 1-2 hrs post drug
  Treatment effect on EEG power vs vehicle, significance: ** (** P < 0.01)
[1]; 12 mg/kg IV, 60 min post SE onset, 50-70 Hz, 15-30 min post drug
  Treatment effect on EEG power vs vehicle, significance: * (* P < 0.05)
[1]; 12 mg/kg IV, 60 min post SE onset, 50-70 Hz, 30-60 min post drug
  Treatment effect on EEG power vs vehicle, significance: ** (** P < 0.01)
[1]; 15 mg/kg IV, 15 min post SE onset, 0-5 Hz, 0-15 min. post drug
  Treatment effect on EEG power vs vehicle, significance: **** (**** P < 0.0001)
[1]; 15 mg/kg IV, 15 min post SE onset, 0-5 Hz, 1-2 hrs post drug
  Treatment effect on EEG power vs vehicle, significance: **** (**** P < 0.0001)
[1]; 15 mg/kg IV, 15 min post SE onset, 0-5 Hz, 2-3 hrs post drug
  Treatment effect on EEG power vs vehicle, significance: **** (**** P < 0.0001)
[1]; 15 mg/kg IV, 15 min post SE onset, 0-5 Hz, 3-5 hrs post drug
  Treatment effect on EEG power vs vehicle, significance: *** (*** P < 0.001)
[1]; 15 mg/kg IV, 15 min post SE onset, 0-5 Hz, 15-30 min post drug
  Treatment effect on EEG power vs vehicle, significance: **** (**** P < 0.0001)
[1]; 15 mg/kg IV, 15 min post SE onset, 0-5 Hz, 30-60 min post drug
  Treatment effect on EEG power vs vehicle, significance: **** (**** P < 0.0001)
[1]; 15 mg/kg IV, 15 min post SE onset, 5-10 Hz, 0-15 min. post drug
  Treatment effect on EEG power vs vehicle, significance: **** (**** P < 0.0001)
[1]; 15 mg/kg IV, 15 min post SE onset, 5-10 Hz, 1-2 hrs post drug
  Treatment effect on EEG power vs vehicle, significance: **** (**** P < 0.0001)
[1]; 15 mg/kg IV, 15 min post SE onset, 5-10 Hz, 2-3 hrs post drug
  Treatment effect on EEG power vs vehicle, significance: *** (*** P < 0.001)
[1]; 15 mg/kg IV, 15 min post SE onset, 5-10 Hz, 3-5 hrs post drug
  Treatment effect on EEG power vs vehicle, significance: ns
[1]; 15 mg/kg IV, 15 min post SE onset, 5-10 Hz, 15-30 min post drug
  Treatment effect on EEG power vs vehicle, significance: **** (**** P < 0.0001)
[1]; 15 mg/kg IV, 15 min post SE onset, 5-10 Hz, 30-60 min post drug
  Treatment effect on EEG power vs vehicle, significance: **** (**** P < 0.0001)
[1]; 15 mg/kg IV, 15 min post SE onset, 10-30 Hz, 0-15 min. post drug
  Treatment effect on EEG power vs vehicle, significance: **** (**** P < 0.0001)
[1]; 15 mg/kg IV, 15 min post SE onset, 10-30 Hz, 1-2 hrs post drug
  Treatment effect on EEG power vs vehicle, significance: ** (** P < 0.01)
[1]; 15 mg/kg IV, 15 min post SE onset, 10-30 Hz, 2-3 hrs post drug
  Treatment effect on EEG power vs vehicle, significance: * (* P < 0.05)
[1]; 15 mg/kg IV, 15 min post SE onset, 10-30 Hz, 3-5 hrs post drug
  Treatment effect on EEG power vs vehicle, significance: ns
[1]; 15 mg/kg IV, 15 min post SE onset, 10-30 Hz, 15-30 min post drug
  Treatment effect on EEG power vs vehicle, significance: **** (**** P < 0.0001)
[1]; 15 mg/kg IV, 15 min post SE onset, 10-30 Hz, 30-60 min post drug
  Treatment effect on EEG power vs vehicle, significance: **** (**** P < 0.0001)
[1]; 15 mg/kg IV, 15 min post SE onset, 30-50 Hz, 0-15 min. post drug
  Treatment effect on EEG power vs vehicle, significance: *** (*** P < 0.001)
[1]; 15 mg/kg IV, 15 min post SE onset, 30-50 Hz, 1-2 hrs post drug
  Treatment effect on EEG power vs vehicle, significance: ** (** P < 0.01)
[1]; 15 mg/kg IV, 15 min post SE onset, 30-50 Hz, 2-3 hrs post drug
  Treatment effect on EEG power vs vehicle, significance: ns
[1]; 15 mg/kg IV, 15 min post SE onset, 30-50 Hz, 3-5 hrs post drug
  Treatment effect on EEG power vs vehicle, significance: ns
[1]; 15 mg/kg IV, 15 min post SE onset, 30-50 Hz, 15-30 min post drug
  Treatment effect on EEG power vs vehicle, significance: *** (*** P < 0.001)
[1]; 15 mg/kg IV, 15 min post SE onset, 30-50 Hz, 30-60 min post drug
  Treatment effect on EEG power vs vehicle, significance: *** (*** P < 0.001)
[1]; 15 mg/kg IV, 15 min post SE onset, 50-70 Hz, 0-15 min. post drug
  Treatment effect on EEG power vs vehicle, significance: ** (** P < 0.01)
[1]; 15 mg/kg IV, 15 min post SE onset, 50-70 Hz, 1-2 hrs post drug
  Treatment effect on EEG power vs vehicle, significance: ** (** P < 0.01)
[1]; 15 mg/kg IV, 15 min post SE onset, 50-70 Hz, 2-3 hrs post drug
  Treatment effect on EEG power vs vehicle, significance: ns
[1]; 15 mg/kg IV, 15 min post SE onset, 50-70 Hz, 3-5 hrs post drug
  Treatment effect on EEG power vs vehicle, significance: ns
[1]; 15 mg/kg IV, 15 min post SE onset, 50-70 Hz, 15-30 min post drug
  Treatment effect on EEG power vs vehicle, significance: ** (** P < 0.01)
[1]; 15 mg/kg IV, 15 min post SE onset, 50-70 Hz, 30-60 min post drug
  Treatment effect on EEG power vs vehicle, significance: ** (** P < 0.01)
[1]; 15 mg/kg IV, 15 min post SE onset, 70-96 Hz, 0-15 min. post drug
  Treatment effect on EEG power vs vehicle, significance: ** (** P < 0.01)
[1]; 15 mg/kg IV, 15 min post SE onset, 70-96 Hz, 1-2 hrs post drug
  Treatment effect on EEG power vs vehicle, significance: ** (** P < 0.01)
[1]; 15 mg/kg IV, 15 min post SE onset, 70-96 Hz, 2-3 hrs post drug
  Treatment effect on EEG power vs vehicle, significance: ns
[1]; 15 mg/kg IV, 15 min post SE onset, 70-96 Hz, 3-5 hrs post drug
  Treatment effect on EEG power vs vehicle, significance: ns
[1]; 15 mg/kg IV, 15 min post SE onset, 70-96 Hz, 15-30 min post drug
  Treatment effect on EEG power vs vehicle, significance: *** (*** P < 0.001)
[1]; 15 mg/kg IV, 15 min post SE onset, 70-96 Hz, 30-60 min post drug
  Treatment effect on EEG power vs vehicle, significance: ** (** P < 0.01)
[1]; 12 and 15 mg/kg IV
  reduction in SE amplitude: very strong reduction in SE amplitude overall
[1]; dosed 15 minutes after SE-onset
  EEG power: reduced EEG power across all frequency ranges to levels at or below baseline for at up to 5 h
[1]; dosed at 60′ post SE-onset, not below baseline up to 70 Hz
  EEG power: strongly reduced
[2]; human plasma following oral administration
  half-life: approximately 20 hours
[2]; therapeutic blood levels are reached quickly
  Tmax: short
